Reference: ChEMBL document CHEMBL4376822, “Hot-Spots of Mcl-1 Protein” (J Med Chem, 2020)

Assays:
[1] = target: T1, Apoptosis regulator Bcl-2 (Homo sapiens, UniProt P10415); assay: Inhibition of human BCl2 expressed in Escherichia coli BL21 (DE3) pLysS cells by surface plasmon resonance assay
[2] = Inhibition of human GST-tagged BCL-XL deltaC25 mutant using biotinylated BIM 26-mer peptide as substrate incubated for 30 mins by AlphaScreen assay
[3] = target: T2, Induced myeloid leukemia cell differentiation protein Mcl-1 (Homo sapiens, UniProt Q07820)
[4] = Inhibition of human GST-tagged BCL-XL deltaC24 mutant using BIMBH3 mutant peptide as substrate by SPR assay
[5] = target: T1, Apoptosis regulator Bcl-2; assay: Displacement of fluorescein labelled Puma-BH3 peptide from human BCl2 expressed in Escherichia coli BL21 (DE3) pLysS cells incubated for 2 hrs by fluorescence polarization assay
[6] = target: T2, Induced myeloid leukemia cell differentiation protein Mcl-1; assay: Inhibition of TAMRA-labeled BIM BH3 peptide binding to human Mcl1 (171 to 327 residues) incubated for 120 mins by fluorescence polarization
[7] = target: T2, Induced myeloid leukemia cell differentiation protein Mcl-1; assay: Displacement of fluorescein labelled Puma-BH3 peptide from His-tagged-TEV fused human Mcl-1 incubated for 2 hrs by fluorescence polarization assay
[8] = target: T1, Apoptosis regulator Bcl-2; assay: Inhibition of Bcl-2 (unknown origin) by fluorescence polarization assay
[9] = target: T1, Apoptosis regulator Bcl-2; assay: Inhibition of wild-type BCL-2 (unknown origin) expressed in Escherichia coli BL21 cells using biotinylated BIMBH3 or BAXBH3 peptide by surface plasmon resonance assay

T1 sequence (P10415 whole entry): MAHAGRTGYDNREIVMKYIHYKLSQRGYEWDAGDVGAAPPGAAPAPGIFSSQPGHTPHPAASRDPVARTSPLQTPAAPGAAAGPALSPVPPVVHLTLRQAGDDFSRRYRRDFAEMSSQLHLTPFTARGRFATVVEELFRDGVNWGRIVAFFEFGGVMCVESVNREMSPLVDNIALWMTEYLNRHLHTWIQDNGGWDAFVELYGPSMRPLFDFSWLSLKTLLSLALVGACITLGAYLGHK
T2 sequence (Q07820 whole entry): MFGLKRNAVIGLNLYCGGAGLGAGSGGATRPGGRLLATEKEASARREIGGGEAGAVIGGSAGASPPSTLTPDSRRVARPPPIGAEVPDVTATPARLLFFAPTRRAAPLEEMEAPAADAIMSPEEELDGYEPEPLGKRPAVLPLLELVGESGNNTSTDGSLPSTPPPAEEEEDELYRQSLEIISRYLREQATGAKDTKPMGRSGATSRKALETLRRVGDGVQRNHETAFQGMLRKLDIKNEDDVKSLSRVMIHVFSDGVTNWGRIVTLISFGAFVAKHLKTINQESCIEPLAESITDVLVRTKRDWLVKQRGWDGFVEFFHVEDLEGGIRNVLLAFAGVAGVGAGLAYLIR

Which IC50 [1] does the source give for `CC[C@H](C)[C@H](NC(=O)[C@H](CCC(=O)O)NC(=O)[C@H](CCCNC(=N)N)NC(=O)[C@H](C)NC(=O)[C@H](Cc1c[nH]c2ccccc12)NC(=O)[C@H](CCC(N)=O)NC(=O)[C@H](CCC(=O)O)NC(=O)[C@@H](N)CCC(=O)O)C(=O)NCC(=O)N[C@@H](C)C(=O)N[C@@H](CCC(N)=O)C(=O)N[C@@H](CC(C)C)C(=O)N[C@@H](CCCNC(=N)N)C(=O)N[C@@H](CCCNC(=N)N)C(=O)N[C@@H](CCSC)C(=O)N[C@@H](C)C(=O)N[C@@H](CC(=O)O)C(=O)N[C@@H](CC(=O)O)C(=O)N[C@@H](CC(C)C)C(=O)N[C@@H](CC(N)=O)C(=O)N[C@@H](C)C(=O)N[C@@H](CCC(N)=O)C(=O)N[C@@H](Cc1ccc(O)cc1)C(=O)N[C@@H](CCC(=O)O)C(=O)N[C@@H](CCCNC(=N)N)C(=O)O` here?
Its IC50 is 3.3 nM.

Which IC50 [2] does the source give for `O=C(O)c1nc(-c2ccc3c(c2)/C(=N/Nc2nc4ccccc4s2)CCC3)sc1CCCCc1ccccc1` here?
Its IC50 is 24 nM.

With `Cc1ccccc1-c1cccc2c(CCCOc3cccc4ccccc34)c(C(=O)O)[nH]c12` as the compound, how does the IC50 [3] read?
The IC50 was 1100 nM.

For `CN(C)CC[C@H](CSc1ccccc1)Nc1ccc(S(=O)(=O)NC(=O)c2ccc(N3CCN(Cc4ccccc4-c4ccccc4)CC3)cc2)cc1[N+](=O)[O-]`, which IC50 [4] is on record?
Its IC50 is 11 nM.

With `CCCCN(CCCC)C(=O)c1cc(C)n(-c2ccccc2C(=O)N2Cc3ccccc3C[C@H]2CN)n1` as the compound, how does the IC50 [5] read?
The IC50 was 1300 nM.

With `O=C1NS(=O)(=O)CCOCCCCCCN2C[C@@]3(CCCc4cc(Cl)ccc43)COc3ccc1cc32` as the compound, how does the IC50 [6] read?
Its IC50 is 10 nM.

With `C[N+](C)(CC[C@H](CSc1ccccc1)Nc1ccc(S(=O)(=O)NC(=O)c2ccc(N3CCN(Cc4ccccc4-c4ccc(Cl)cc4)CC3)cc2)cc1[N+](=O)[O-])CC(=O)O` as the compound, how does the IC50 [5] read?
Its IC50 is 500 nM.

With `COc1cc2c(cc1C(CN1CCCC1)c1ccc(-c3ccc(C(=O)NS(=O)(=O)c4ccc(C[C@H](CCN5CCOCC5)CSc5ccccc5)c(S(=O)(=O)C(F)(F)F)c4)cc3)cc1)OCO2` (some centres undefined) as the compound, how does the IC50 [5] read?
Its IC50 is 20 nM.

With `Cc1n[nH]c(C)c1-c1cccc2c(CCCOc3cccc4ccccc34)c(C(=O)O)[nH]c12` as the compound, how does the IC50 [7] read?
The IC50 was 100 nM.

With `CCc1sc2ncnc(N[C@@H](CO)C(=O)O)c2c1-c1ccccc1` as the compound, how does the IC50 [7] read?
Its IC50 is 520000 nM.

For `O=C(NS(=O)(=O)c1ccc(NC2CCOCC2)c([N+](=O)[O-])c1)c1ccc(N2CCN(CC3=C(c4ccc(Cl)cc4)COCC3)CC2)cc1`, which Ki [8] is on record?
Its Ki is 59 nM.

For `C/C(=N\Nc1nc2ccccc2s1)c1ccc(-c2ccc(S(=O)(=O)NC(=O)CCCCCc3ccccc3)cc2)o1`, which IC50 [2] is on record?
The IC50 was 770 nM.

For `NC[C@@H]1Cc2ccccc2CN1C(=O)c1cc2c(cc1-c1cc(C(=O)N(c3ccccc3)c3ccc(O)cc3)c3n1CCCC3)OCO2`, which Ki [9] is on record?
The Ki was 0.36 nM.
